Test results reported in ChEMBL document CHEMBL4800722, “Data for DCP probe BI 605906” (2021).

How the values were obtained:
[1] = target: Polyunsaturated fatty acid lipoxygenase ALOX15 (Oryctolagus cuniculus) (UniProt P12530); assay: 15LO Eurofins SafetyScreen44 (BI); conditions: Compound concentration 10.0 uM
[2] = target: Voltage-dependent L-type calcium channel subunit alpha-1C (CA+/DILSI/RA) (Rattus norvegicus, UniProt P22002); assay: CA+/DILSI/RA Eurofins SafetyScreen44 (BI); conditions: read-out: % Ctrl
Chain of Voltage-dependent L-type calcium channel subunit alpha-1C (CA+/DILSI/RA) (P22002 whole entry): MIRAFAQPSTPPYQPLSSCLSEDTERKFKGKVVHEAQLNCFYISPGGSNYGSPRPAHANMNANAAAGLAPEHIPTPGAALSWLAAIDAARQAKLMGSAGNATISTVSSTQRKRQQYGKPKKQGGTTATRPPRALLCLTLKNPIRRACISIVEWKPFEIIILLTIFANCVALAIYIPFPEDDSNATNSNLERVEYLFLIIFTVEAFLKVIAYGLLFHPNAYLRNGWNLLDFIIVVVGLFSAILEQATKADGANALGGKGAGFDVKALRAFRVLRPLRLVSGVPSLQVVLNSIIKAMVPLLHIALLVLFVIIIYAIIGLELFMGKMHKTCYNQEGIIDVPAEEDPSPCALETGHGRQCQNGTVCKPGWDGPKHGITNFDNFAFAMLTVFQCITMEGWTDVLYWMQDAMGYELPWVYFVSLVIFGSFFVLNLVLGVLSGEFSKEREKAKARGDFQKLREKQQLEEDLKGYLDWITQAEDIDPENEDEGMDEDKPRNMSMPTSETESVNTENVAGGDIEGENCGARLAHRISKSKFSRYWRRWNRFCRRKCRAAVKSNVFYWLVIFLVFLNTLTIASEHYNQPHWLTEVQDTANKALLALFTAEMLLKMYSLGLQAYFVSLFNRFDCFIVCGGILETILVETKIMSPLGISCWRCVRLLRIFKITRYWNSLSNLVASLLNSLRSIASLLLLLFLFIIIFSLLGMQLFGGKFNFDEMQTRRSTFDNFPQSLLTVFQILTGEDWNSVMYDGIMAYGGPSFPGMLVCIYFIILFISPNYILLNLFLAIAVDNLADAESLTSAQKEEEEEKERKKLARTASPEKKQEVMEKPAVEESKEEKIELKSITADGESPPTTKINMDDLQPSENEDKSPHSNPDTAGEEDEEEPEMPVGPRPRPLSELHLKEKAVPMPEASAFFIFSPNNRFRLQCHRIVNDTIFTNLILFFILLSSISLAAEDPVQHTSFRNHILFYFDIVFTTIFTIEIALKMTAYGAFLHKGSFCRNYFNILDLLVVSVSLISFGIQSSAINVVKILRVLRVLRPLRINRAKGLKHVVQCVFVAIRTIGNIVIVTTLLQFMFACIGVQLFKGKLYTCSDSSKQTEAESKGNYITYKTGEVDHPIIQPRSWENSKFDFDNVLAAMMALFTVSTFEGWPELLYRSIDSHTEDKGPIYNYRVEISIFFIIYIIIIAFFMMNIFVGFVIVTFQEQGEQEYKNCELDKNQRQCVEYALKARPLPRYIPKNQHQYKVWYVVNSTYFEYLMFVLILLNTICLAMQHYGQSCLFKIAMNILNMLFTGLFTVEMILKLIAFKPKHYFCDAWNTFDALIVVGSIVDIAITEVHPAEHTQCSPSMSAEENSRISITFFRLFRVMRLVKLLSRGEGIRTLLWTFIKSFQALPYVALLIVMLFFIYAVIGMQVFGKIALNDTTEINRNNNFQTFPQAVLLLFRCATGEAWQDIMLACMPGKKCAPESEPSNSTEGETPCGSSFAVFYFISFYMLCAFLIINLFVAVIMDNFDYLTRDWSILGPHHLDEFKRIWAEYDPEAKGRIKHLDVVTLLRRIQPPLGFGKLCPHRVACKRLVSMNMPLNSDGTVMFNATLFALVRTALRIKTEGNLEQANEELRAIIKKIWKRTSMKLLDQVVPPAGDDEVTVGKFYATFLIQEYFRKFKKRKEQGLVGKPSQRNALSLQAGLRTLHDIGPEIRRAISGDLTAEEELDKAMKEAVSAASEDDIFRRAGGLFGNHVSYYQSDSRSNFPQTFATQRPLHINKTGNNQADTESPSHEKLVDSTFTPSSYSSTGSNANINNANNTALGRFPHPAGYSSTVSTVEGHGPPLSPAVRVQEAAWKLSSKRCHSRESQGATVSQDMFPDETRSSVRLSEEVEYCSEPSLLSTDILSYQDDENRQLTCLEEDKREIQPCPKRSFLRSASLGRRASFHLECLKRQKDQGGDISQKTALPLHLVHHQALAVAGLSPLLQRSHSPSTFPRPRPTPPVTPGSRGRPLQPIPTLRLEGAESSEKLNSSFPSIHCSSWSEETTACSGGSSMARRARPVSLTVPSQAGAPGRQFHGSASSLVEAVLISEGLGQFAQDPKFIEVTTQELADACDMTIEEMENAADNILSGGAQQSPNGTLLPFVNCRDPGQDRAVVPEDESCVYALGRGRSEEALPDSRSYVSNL

[3] = target: Serine/threonine-protein kinase 3 (Homo sapiens) (UniProt Q13188); assay: STK3 Invitrogen Lab (UK) kinase screen (BI); conditions: Compound concentration 1.0 uM
[4] = target: Tyrosine-protein kinase CSK (Homo sapiens) (UniProt P41240); assay: CSK DUNDEE kinase screen (BI); conditions: Compound concentration 10.0 uM
[5] = target: Beta-2 adrenergic receptor (Homo sapiens) (UniProt P07550); conditions: Compound concentration 10.0 uM
[6] = target: GABA-A receptor; anion channel (Rattus norvegicus) (UniProt O09028+P15431+P18506+P18508+P19969+P20236+P23574+P23576+P28471+P28473+P30191+P62813+P63079+P63138+Q91ZM7+Q9ES14); conditions: Compound concentration 10.0 uM
[7] = target: Serotonin 2 (5-HT2) receptor (Rattus norvegicus) (UniProt P30994+P08909+P14842)
Chain of Serotonin 2 (5-HT2) receptor (Rattus norvegicus) (P08909 whole entry, looked up): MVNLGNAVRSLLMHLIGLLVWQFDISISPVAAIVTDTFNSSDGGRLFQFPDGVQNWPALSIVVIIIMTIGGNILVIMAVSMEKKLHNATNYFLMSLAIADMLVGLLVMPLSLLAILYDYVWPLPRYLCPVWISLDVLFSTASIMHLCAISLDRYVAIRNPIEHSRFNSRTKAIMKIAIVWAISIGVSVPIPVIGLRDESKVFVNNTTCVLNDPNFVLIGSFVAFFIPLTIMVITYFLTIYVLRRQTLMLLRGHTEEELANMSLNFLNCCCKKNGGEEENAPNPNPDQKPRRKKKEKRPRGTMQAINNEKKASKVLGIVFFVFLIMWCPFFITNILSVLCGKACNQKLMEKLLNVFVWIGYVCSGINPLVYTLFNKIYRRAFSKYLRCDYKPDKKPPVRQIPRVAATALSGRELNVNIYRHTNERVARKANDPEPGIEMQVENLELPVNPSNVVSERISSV
Chain of Serotonin 2 (5-HT2) receptor (Rattus norvegicus) (P14842 whole entry, looked up): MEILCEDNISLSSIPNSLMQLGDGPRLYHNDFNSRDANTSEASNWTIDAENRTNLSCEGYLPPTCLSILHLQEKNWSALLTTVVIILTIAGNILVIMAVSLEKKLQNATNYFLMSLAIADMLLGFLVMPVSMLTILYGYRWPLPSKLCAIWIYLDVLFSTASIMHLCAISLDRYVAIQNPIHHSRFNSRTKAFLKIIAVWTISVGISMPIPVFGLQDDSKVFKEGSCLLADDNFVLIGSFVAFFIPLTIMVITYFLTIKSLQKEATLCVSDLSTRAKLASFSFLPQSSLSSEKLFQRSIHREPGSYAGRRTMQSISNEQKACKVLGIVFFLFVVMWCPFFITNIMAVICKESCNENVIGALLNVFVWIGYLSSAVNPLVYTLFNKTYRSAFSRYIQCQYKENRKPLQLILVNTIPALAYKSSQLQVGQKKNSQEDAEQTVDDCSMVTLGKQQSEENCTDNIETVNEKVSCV
Chain of Serotonin 2 (5-HT2) receptor (Rattus norvegicus) (P30994 whole entry, looked up): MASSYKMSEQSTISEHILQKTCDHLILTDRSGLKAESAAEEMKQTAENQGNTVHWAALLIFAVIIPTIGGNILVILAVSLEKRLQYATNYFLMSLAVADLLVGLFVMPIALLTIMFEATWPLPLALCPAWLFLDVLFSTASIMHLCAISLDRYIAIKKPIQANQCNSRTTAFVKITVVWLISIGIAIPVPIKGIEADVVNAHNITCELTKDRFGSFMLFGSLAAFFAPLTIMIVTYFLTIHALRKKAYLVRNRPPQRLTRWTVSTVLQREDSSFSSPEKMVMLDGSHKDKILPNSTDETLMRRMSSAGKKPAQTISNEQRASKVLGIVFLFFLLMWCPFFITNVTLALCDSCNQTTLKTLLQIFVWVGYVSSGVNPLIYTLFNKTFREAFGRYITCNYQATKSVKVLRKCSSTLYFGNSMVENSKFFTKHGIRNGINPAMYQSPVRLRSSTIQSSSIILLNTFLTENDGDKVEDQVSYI

[8] = target: Activin receptor type-2A (Homo sapiens) (UniProt P27037); conditions: Compound concentration 1.0 uM
[9] = target: T1, Interleukin-1 receptor-associated kinase 3 (Homo sapiens) (UniProt Q9Y616)
T1 sequence (whole entry): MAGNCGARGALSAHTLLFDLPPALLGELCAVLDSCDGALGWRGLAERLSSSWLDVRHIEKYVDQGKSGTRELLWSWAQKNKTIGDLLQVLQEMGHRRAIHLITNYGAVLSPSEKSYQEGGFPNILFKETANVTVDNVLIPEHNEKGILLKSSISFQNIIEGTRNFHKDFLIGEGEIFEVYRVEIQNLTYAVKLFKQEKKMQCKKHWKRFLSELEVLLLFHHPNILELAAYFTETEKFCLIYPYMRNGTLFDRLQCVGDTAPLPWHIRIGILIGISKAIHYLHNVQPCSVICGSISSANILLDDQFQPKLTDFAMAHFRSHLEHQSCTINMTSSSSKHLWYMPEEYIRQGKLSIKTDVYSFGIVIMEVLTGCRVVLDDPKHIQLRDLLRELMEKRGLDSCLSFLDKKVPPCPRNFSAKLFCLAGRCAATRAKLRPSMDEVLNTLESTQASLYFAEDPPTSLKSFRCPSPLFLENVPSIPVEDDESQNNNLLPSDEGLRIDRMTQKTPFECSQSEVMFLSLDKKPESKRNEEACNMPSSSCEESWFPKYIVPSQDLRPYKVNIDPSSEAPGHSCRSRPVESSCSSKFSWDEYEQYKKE

[10] = target: Mitogen-activated protein kinase kinase kinase kinase 1 (Homo sapiens) (UniProt Q92918); conditions: Compound concentration 1.0 uM
[11] = target: Mitogen-activated protein kinase kinase kinase kinase 3 (Homo sapiens) (UniProt Q8IVH8); conditions: Compound concentration 1.0 uM
[12] = target: MAP/microtubule affinity-regulating kinase 3 (Homo sapiens) (UniProt P27448); conditions: Compound concentration 1.0 uM
[13] = target: Dual specificity testis-specific protein kinase 2 (Homo sapiens) (UniProt Q96S53); conditions: Compound concentration 1.0 uM
[14] = target: Serine/threonine-protein kinase ULK2 (Homo sapiens) (UniProt Q8IYT8); conditions: Compound concentration 1.0 uM
[15] = target: Tyrosine-protein kinase BTK (Homo sapiens) (UniProt Q06187)
[16] = target: Calcium/calmodulin-dependent protein kinase kinase 1 (Homo sapiens) (UniProt Q8N5S9); conditions: Compound concentration 1.0 uM
[17] = target: Serine/threonine-protein kinase MRCK alpha (Homo sapiens) (UniProt Q5VT25); conditions: Compound concentration 1.0 uM
[18] = target: Cyclin-dependent kinase 1/cyclin B (Homo sapiens) (UniProt P06493+P14635+Q8WWL7+O95067)
[19] = target: Cyclin-dependent kinase 5/CDK5 activator 1 (Homo sapiens) (UniProt Q00535+Q15078); conditions: Compound concentration 1.0 uM
[20] = target: Cyclin-dependent kinase 7 (Homo sapiens) (UniProt P50613); conditions: Compound concentration 1.0 uM
[21] = target: Ephrin type-B receptor 3 (Homo sapiens) (UniProt P54753); conditions: Compound concentration 1.0 uM
[22] = target: Mitogen-activated protein kinase kinase kinase 14 (Homo sapiens) (UniProt Q99558); conditions: Compound concentration 1.0 uM
[23] = target: MAP kinase-activated protein kinase 2 (Homo sapiens) (UniProt P49137)
Chain of MAP kinase-activated protein kinase 2 (Homo sapiens) (P49137 whole entry, looked up): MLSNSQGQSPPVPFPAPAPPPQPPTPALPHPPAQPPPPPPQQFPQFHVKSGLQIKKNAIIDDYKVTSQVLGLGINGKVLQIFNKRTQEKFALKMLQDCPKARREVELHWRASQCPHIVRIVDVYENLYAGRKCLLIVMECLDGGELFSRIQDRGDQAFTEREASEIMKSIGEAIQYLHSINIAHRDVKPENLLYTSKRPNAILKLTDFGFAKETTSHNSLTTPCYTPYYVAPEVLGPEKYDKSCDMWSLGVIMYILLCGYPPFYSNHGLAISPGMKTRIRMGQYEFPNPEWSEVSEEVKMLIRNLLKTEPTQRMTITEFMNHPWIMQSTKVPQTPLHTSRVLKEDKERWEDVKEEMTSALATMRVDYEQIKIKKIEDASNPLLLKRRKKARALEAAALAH

[24] = target: Serine/threonine-protein kinase MARK1 (Homo sapiens) (UniProt Q9P0L2); conditions: Compound concentration 1.0 uM
[25] = target: Serine/threonine-protein kinase MARK2 (Homo sapiens) (UniProt Q7KZI7)
Chain of Serine/threonine-protein kinase MARK2 (Homo sapiens) (Q7KZI7 whole entry): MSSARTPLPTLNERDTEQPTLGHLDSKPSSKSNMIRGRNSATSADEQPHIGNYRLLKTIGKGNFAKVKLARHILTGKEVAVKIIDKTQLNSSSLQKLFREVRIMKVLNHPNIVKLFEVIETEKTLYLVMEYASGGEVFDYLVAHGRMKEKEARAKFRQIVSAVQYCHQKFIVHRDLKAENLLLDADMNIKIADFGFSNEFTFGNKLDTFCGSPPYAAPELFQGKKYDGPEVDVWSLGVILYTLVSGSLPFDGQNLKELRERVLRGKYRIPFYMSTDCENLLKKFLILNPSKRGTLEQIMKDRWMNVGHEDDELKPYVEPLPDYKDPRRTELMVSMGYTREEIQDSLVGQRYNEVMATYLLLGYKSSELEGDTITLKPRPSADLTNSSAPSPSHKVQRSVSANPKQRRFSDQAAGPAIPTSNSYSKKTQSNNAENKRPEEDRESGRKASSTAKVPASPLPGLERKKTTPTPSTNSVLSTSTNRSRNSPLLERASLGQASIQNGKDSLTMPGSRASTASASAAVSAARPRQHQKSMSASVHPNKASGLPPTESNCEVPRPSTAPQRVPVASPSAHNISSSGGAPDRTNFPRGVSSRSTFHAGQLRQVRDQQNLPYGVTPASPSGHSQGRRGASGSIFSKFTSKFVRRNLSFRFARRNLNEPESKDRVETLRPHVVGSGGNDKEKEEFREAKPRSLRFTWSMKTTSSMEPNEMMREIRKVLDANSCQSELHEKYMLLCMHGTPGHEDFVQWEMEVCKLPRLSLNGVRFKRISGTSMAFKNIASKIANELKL

[26] = target: Phosphatidylinositol 4-kinase beta (Homo sapiens) (UniProt Q9UBF8); conditions: Compound concentration 1.0 uM
[27] = target: PI3-kinase p110-delta/p85-alpha (Homo sapiens) (UniProt P27986+O00329); conditions: Compound concentration 1.0 uM
[28] = target: Protein kinase C iota type (Homo sapiens) (UniProt P41743); conditions: Compound concentration 1.0 uM
[29] = target: Rho-associated protein kinase 2 (Homo sapiens) (UniProt O75116); conditions: Compound concentration 1.0 uM
[30] = target: Proto-oncogene tyrosine-protein kinase ROS (Homo sapiens) (UniProt P08922); conditions: Compound concentration 1.0 uM
[31] = target: Serine/threonine-protein kinase 24 (Homo sapiens) (UniProt Q9Y6E0); conditions: Compound concentration 1.0 uM

CCC(F)(F)c1cc(N2CCC(S(C)(=O)=O)CC2)nc2sc(C(N)=O)c(N)c12 [BI-605906] was tested. Which residual activity [1] did it give?
The residual activity was 79%.

What about the activity at 1 µM ([2]; compound concentration 1 uM) of the same compound?
The activity at 1 µM was 99% (not active).

And the activity at 3 µM ([2]; compound concentration 3 uM)?
Its activity at 3 µM is 111% (not active).

And the activity at 10 µM ([2]; compound concentration 10 uM)?
Its activity at 10 µM is 101% (not active).

What about the activity at 30 µM ([2]; compound concentration 30 uM) of the same compound?
The activity at 30 µM was 87% (not active).

What about the activity at 100 µM ([2]; compound concentration 100 uM) of the same compound?
Its activity at 100 µM is 45%.

What about the residual activity [3] of the same compound?
Its residual activity is 103%.

What about the residual activity [4] of the same compound?
Its residual activity is 78.3%.

And the inhibition [5]?
Its inhibition is 8.96%.

What about the inhibition [6] of the same compound?
The inhibition was 8.92%.

And the residual activity ([7]; Compound concentration 10.0 uM)?
The residual activity was 97%.

And the residual activity ([7]; Compound concentration 100.0 uM)?
Its residual activity is 95%.

What about the residual activity [8] of the same compound?
Its residual activity is 108%.

And the residual activity ([9]; Compound concentration 0.001 uM)?
The residual activity was 93%.

What about the residual activity ([9]; Compound concentration 1.0 uM) of the same compound?
The residual activity was 24%.

What about the residual activity ([9]; Compound concentration 20.0 uM) of the same compound?
The residual activity was 14%.

And the residual activity [10]?
Its residual activity is 82%.

And the residual activity [11]?
Its residual activity is 93%.

And the residual activity [12]?
Its residual activity is 90%.

What about the residual activity [13] of the same compound?
Its residual activity is 90%.

And the residual activity [14]?
Its residual activity is 93%.

And the residual activity ([15]; Compound concentration 1.0 uM)?
The residual activity was 85%.

And the residual activity ([15]; Compound concentration 10.0 uM)?
Its residual activity is 96%.

And the residual activity [16]?
Its residual activity is 93%.

And the residual activity [17]?
Its residual activity is 95%.

What about the residual activity ([18]; Compound concentration 1.0 uM) of the same compound?
The residual activity was 92%.

What about the residual activity ([18]; Compound concentration 10.0 uM) of the same compound?
The residual activity was 94%.

And the residual activity [19]?
Its residual activity is 99%.

What about the residual activity [20] of the same compound?
The residual activity was 99%.

And the residual activity [21]?
The residual activity was 99%.

And the residual activity [22]?
The residual activity was 100%.

What about the residual activity ([23]; Compound concentration 1.0 uM) of the same compound?
Its residual activity is 93%.

What about the residual activity ([23]; Compound concentration 10.0 uM) of the same compound?
The residual activity was 87%.

What about the residual activity [24] of the same compound?
Its residual activity is 91%.

And the residual activity ([25]; Compound concentration 1.0 uM)?
Its residual activity is 90%.

What about the residual activity ([25]; Compound concentration 10.0 uM) of the same compound?
The residual activity was 87%.

What about the residual activity [26] of the same compound?
Its residual activity is 92%.

What about the residual activity [27] of the same compound?
The residual activity was 87%.

What about the residual activity [28] of the same compound?
Its residual activity is 105%.

And the residual activity [29]?
The residual activity was 96%.

And the residual activity [30]?
The residual activity was 94%.

And the residual activity [31]?
The residual activity was 101%.
